Results published in ChEMBL document CHEMBL1687848, “In vitro effect of qnrA1, qnrB1, and qnrS1 genes on fluoroquinolone activity against isogenic Escherichia coli isolates with mutations in gyrA and parC” (2011).
≈ marks a conversion by molar mass, not a printed value.

Experiments:
Assay type in all cases: functional
Escherichia coli [1] = assay: Antibacterial activity against Escherichia coli ATCC 25922 assessed as mutant prevention concentration
Escherichia coli [2] = assay: Antibacterial activity against qnrB gene expressing Escherichia coli ATCC 25922 harboring GyrA S83L mutant and pBK-QnrB1 assessed as mutant prevention concentration
Escherichia coli [3] = assay: Antibacterial activity against Escherichia coli ATCC 25922 harboring GyrA S83L mutant assessed as mutant prevention concentration
Escherichia coli [4] = assay: Antibacterial activity against Escherichia coli ATCC 25922 expressing qnrB gene and pBK-QnrB1 assessed as earliest time required to resistant colonies visible one step below mutant prevention concentration
Escherichia coli [5] = assay: Antibacterial activity against Escherichia coli ATCC 25922 expressing qnrS gene and pBK-QnrS1 by broth microdilution method
Escherichia coli [6] = assay: Antibacterial activity against Escherichia coli ATCC 25922 assessed as earliest time required to resistant colonies visible one step below mutant prevention concentration
Escherichia coli [7] = assay: Antibacterial activity against qnrS gene expressing Escherichia coli ATCC 25922 harboring ParC S80R mutant, ParC S80R mutant and pBK-QnrS1 by broth microdilution method
Escherichia coli [8] = assay: Antibacterial activity against Escherichia coli ATCC 25922 expressing qnrB gene and pBK-QnrB1 by broth microdilution method
Escherichia coli [9] = assay: Antibacterial activity against Escherichia coli ATCC 25922 expressing qnrS gene and pBK-QnrS1 assessed as earliest time required to resistant colonies visible one step below mutant prevention concentration
Escherichia coli [10] = assay: Antibacterial activity against qnrB gene expressing Escherichia coli ATCC 25922 harboring GyrA S83L mutant and pBK-QnrB1 by broth microdilution method
Escherichia coli [11] = assay: Antibacterial activity against Escherichia coli ATCC 25922 expressing qnrA gene and pBK-QnrA1 assessed as earliest time required to resistant colonies visible one step below mutant prevention concentration
Escherichia coli [12] = assay: Antibacterial activity against qnrS gene expressing Escherichia coli ATCC 25922 harboring GyrA S83L mutant and pBK-QnrS1 by broth microdilution method
Escherichia coli [13] = assay: Antibacterial activity against Escherichia coli ATCC 25922 expressing qnrB gene and pBK-QnrB1 assessed as mutant prevention concentration
Escherichia coli [14] = assay: Antibacterial activity against qnrS gene expressing Escherichia coli ATCC 25922 harboring ParC S80R mutant and pBK-QnrS1 by broth microdilution method
Escherichia coli [15] = assay: Antibacterial activity against qnrB gene expressing Escherichia coli ATCC 25922 harboring ParC S80R mutant and pBK-QnrB1 by broth microdilution method
Escherichia coli [16] = assay: Antibacterial activity against qnrS gene expressing Escherichia coli ATCC 25922 harboring GyrA S83L mutant and pBK-QnrS1 assessed as mutant prevention concentration
Escherichia coli [17] = assay: Antibacterial activity against Escherichia coli ATCC 25922 expressing qnrS gene and pBK-QnrS1 assessed as mutant prevention concentration
Escherichia coli [18] = assay: Antibacterial activity against Escherichia coli ATCC 25922 harboring GyrA S83L mutant and ParC S80R mutant by broth microdilution method
Escherichia coli [19] = assay: Antibacterial activity against Escherichia coli ATCC 25922 expressing qnrA gene and pBK-QnrA1 assessed as mutant prevention concentration
Escherichia coli [20] = assay: Antibacterial activity against qnrB gene expressing Escherichia coli ATCC 25922 harboring ParC S80R mutant, ParC S80R mutant and pBK-QnrB1 by broth microdilution method
Escherichia coli [21] = assay: Antibacterial activity against qnrA gene expressing Escherichia coli ATCC 25922 harboring GyrA S83L mutant and pBK-QnrA1 assessed as earliest time required to resistant colonies visible one step below mutant prevention concentration
Escherichia coli [22] = assay: Antibacterial activity against Escherichia coli ATCC 25922 harboring GyrA S83L mutant assessed as earliest time required to resistant colonies visible one step below mutant prevention concentration
Escherichia coli [23] = assay: Antibacterial activity against qnrB gene expressing Escherichia coli ATCC 25922 harboring GyrA S83L mutant and pBK-QnrB1 assessed as earliest time required to resistant colonies visible one step below mutant prevention concentration
Escherichia coli [24] = assay: Antibacterial activity against qnrA gene expressing Escherichia coli ATCC 25922 harboring ParC S80R mutant, ParC S80R mutant and pBK-QnrA1 by broth microdilution method
Escherichia coli [25] = assay: Antibacterial activity against Escherichia coli ATCC 25922 expressing qnrA gene and pBK-QnrA1 by broth microdilution method
Escherichia coli [26] = assay: Antibacterial activity against Escherichia coli ATCC 25922 harboring GyrA S83L mutant by broth microdilution method
Escherichia coli [27] = assay: Antibacterial activity against Escherichia coli ATCC 25922 harboring ParC S80R mutant by broth microdilution method
Escherichia coli [28] = assay: Antibacterial activity against qnrA gene expressing Escherichia coli ATCC 25922 harboring GyrA S83L mutant and pBK-QnrA1 by broth microdilution method
Escherichia coli [29] = assay: Antibacterial activity against qnrA gene expressing Escherichia coli ATCC 25922 harboring GyrA S83L mutant and pBK-QnrA1 assessed as mutant prevention concentration
Escherichia coli [30] = assay: Antibacterial activity against Escherichia coli ATCC 25922 by broth microdilution method
Escherichia coli [31] = assay: Antibacterial activity against qnrS gene expressing Escherichia coli ATCC 25922 harboring GyrA S83L mutant and pBK-QnrS1 assessed as earliest time required to resistant colonies visible one step below mutant prevention concentration
Escherichia coli [32] = assay: Antibacterial activity against qnrA gene expressing Escherichia coli ATCC 25922 harboring ParC S80R mutant and pBK-QnrA1 by broth microdilution method

SMILES: O=C(O)c1cn(C2CC2)c2cc(N3CCNCC3)c(F)cc2c1=O [CIPROFLOXACIN]
- Activity (Escherichia coli [1]): 1 µg/mL
- Activity (Escherichia coli [2]): 8 µg/mL
- Activity (Escherichia coli [3]): 4 µg/mL
- Time (Escherichia coli [4]): 72 h
- MBC (Escherichia coli [5]): 0.25 µg/mL (≈ 0.754 µM)
- Time (Escherichia coli [6]): 48 h
- MBC (Escherichia coli [7]): 4 µg/mL (≈ 12.1 µM)
- MBC (Escherichia coli [8]): 0.125 µg/mL (≈ 0.377 µM)
- Time (Escherichia coli [9]): 24 h
- MBC (Escherichia coli [10]): 0.5 µg/mL (≈ 1.51 µM)
- Time (Escherichia coli [11]): 48 h
- MBC (Escherichia coli [12]): 1 µg/mL (≈ 3.02 µM)
- Activity (Escherichia coli [13]): 2 µg/mL
- MBC (Escherichia coli [14]): 0.25 µg/mL (≈ 0.754 µM)
- MBC (Escherichia coli [15]): 0.25 µg/mL (≈ 0.754 µM)
- Activity (Escherichia coli [16]): 8 µg/mL
- Activity (Escherichia coli [17]): 4 µg/mL
- MBC (Escherichia coli [18]): 2 µg/mL (≈ 6.04 µM)
- Activity (Escherichia coli [19]): 8 µg/mL
- MBC (Escherichia coli [20]): 2 µg/mL (≈ 6.04 µM)
- Time (Escherichia coli [21]): 24 h
- Time (Escherichia coli [22]): 24 h
- Time (Escherichia coli [23]): 24 h
- MBC (Escherichia coli [24]): 4 µg/mL (≈ 12.1 µM)
- MBC (Escherichia coli [25]): 0.125 µg/mL (≈ 0.377 µM)
- MBC (Escherichia coli [26]): 0.125 µg/mL (≈ 0.377 µM)
- MBC (Escherichia coli [27]): 0.004 µg/mL (≈ 0.0121 µM)
- MBC (Escherichia coli [28]): 0.5 µg/mL (≈ 1.51 µM)
- Activity (Escherichia coli [29]): 16 µg/mL
- MBC (Escherichia coli [30]): 0.015 µg/mL (≈ 0.0453 µM)
- Time (Escherichia coli [31]): 24 h
- MBC (Escherichia coli [32]): 0.25 µg/mL (≈ 0.754 µM)
